Results as given in US9428753B2, “Use of LXR antagonists for treatment of side effects of elevated glucocorticoid levels” (The Governing Council of the University of Toronto, priority 2013, dated 2016).
“Also recorded” adds a separate entry of the source.

Tests used:
GR = target: T1, GR (Homo sapiens, UniProt P04150); test: GAL4-GR / UAS-luc co-transfection reporter assay in HEK293 cells; type: cell-based; design: co-transfecting UAS-reporter and GAL4-LBD of the nuclear receptors LXRα, LXRβ and GR; GAL4 (fusion partner); expressed in transfected cells; host or cells: HEK293 cells; mouse primary hepatocytes
T1 sequence (P04150 524-758 limits assumed): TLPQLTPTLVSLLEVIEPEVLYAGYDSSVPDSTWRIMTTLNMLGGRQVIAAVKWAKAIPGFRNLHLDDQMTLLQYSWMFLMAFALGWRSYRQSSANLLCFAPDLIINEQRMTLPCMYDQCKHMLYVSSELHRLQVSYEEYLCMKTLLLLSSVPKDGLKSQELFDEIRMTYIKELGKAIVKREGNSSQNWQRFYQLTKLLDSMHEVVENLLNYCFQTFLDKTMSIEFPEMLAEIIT
Experimental: (§1) RLU=relative luciferase units.
as §1
(§2) Further experiments were then carried out to determine the inhibitory potencies for the individual LXR isoforms in HEK 293 cells by co-transfecting UAS-reporter and GAL4-LBD of the nuclear receptors LXRα, LXRβ and GR and then treating with 8 different concentrations of GSK2033. To assess suppression of ligand activated receptors, the transfected cells were co-treated with increasing doses of GSK2033, in addition to T09091317 or Dex (dexamethasone) (at EC80 of LXR isoforms and GR, respectively).
(§3) A number of experiments were carried out to determine the relative inhibitory potencies of GSK2033, Amgen 54 and DMHCl for the individual LXR isoforms in HEK 293 cells by co-transfecting UAS-reporter and GAL4-LBD of the nuclear receptors LXRα, LXRβ and GR and then treating with 6 different concentrations of GSK2033, Amgen 54 and DMHCl. To assess suppression of ligand activated receptors, the transfected cells were co-treated with increasing doses of GSK2033, Amgen 54 and DMHCl, in addition to T09091317 or Dex (at EC80 of LXR isoforms and GR, respectively).

GILZ = GILZ gene expression in LPS activated mouse primary macrophages (RT-QPCR); type: cell-based; settings: 100 nM Dex + 10 μM GSK2033, 18 hrs
Experimental: (§4) The expression of genes involved in immune response IL-1β, IL-6 and GILZ was measured following an overnight treatment with Dex 100 nM, 250 nM T0901317 (T09), and/or 10 μM GSK2033 in LPS activated WT, LXR α −/− and LXRβ −/− mouse primary macrophages, by RT-QPCR. Data represent the Avg±SD, N=3. *P<0.05 by One way ANOVA, Student Newman Keuls.
(§5) To assess the ability of GSK2033 to affect GR-mediated inflammatory suppression, a number of gene expression studies were conducted on primary macrophages isolated from WT, LXRα−/− and LXRβ−/− mice. Cells were pre-treated with 10 ng/ml lipopolysaccharide (LPS) for 6 hrs (to induce a potent inflammatory response) followed by treatment of 100 nM Dex, 10 μM GSK2033 and/or 250 nM T09 for 18 hrs.

IL-6 = IL-6 gene expression in LPS activated mouse primary macrophages (RT-QPCR); type: cell-based
Experimental: as §4, §5

Pepck = Pepck gene expression in mouse primary hepatocytes; type: cell-based
LXRα [1] = target: T2, LXRα (Homo sapiens, UniProt Q13133); test: GAL4-LXRα / UAS-luc co-transfection reporter assay in HEK293 cells; type: cell-based; design: co-transfecting UAS-reporter and GAL4-LBD of the nuclear receptors LXRα, LXRβ and GR; GAL4 (fusion partner); expressed in transfected cells; host or cells: HEK293 cells; mouse primary hepatocytes
T2 sequence (Q13133 209-447 limits assumed): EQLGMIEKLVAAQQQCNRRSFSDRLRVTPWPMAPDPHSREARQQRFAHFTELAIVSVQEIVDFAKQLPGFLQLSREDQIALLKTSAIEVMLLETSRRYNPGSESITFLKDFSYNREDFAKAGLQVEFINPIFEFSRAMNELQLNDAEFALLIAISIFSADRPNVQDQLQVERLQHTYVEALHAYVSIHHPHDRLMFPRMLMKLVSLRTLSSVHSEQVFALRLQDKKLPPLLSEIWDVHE
Experimental: as §1, §1, §2, §3

LXRα [2] = target: T2, LXRα; test: cell-based
LXRβ = target: T3, LXRβ (Homo sapiens, UniProt P55055); test: GAL4-LXRβ / UAS-luc transfection assay in mouse primary hepatocytes
T3 sequence (P55055 222-460 limits assumed): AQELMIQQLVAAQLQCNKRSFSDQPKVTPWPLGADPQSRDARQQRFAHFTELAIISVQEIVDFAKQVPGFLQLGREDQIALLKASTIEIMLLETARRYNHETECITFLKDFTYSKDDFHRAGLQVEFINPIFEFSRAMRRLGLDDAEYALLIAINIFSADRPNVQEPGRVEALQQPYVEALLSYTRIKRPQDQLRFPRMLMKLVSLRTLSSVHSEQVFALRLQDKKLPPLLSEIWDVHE
From the text: as §1

LXRα−/− mice = test: In vivo pilot study: T09 with GSK2033, liver LXR target genes
IL-1β = IL-1β gene expression in LPS activated mouse primary macrophages (RT-QPCR); type: cell-based
Experimental: as §4, §5

LXRα [3] = target: T2, LXRα; test: GAL4-LXRα / UAS-luc transfection assay in mouse primary hepatocytes
[4] = LPS activated macrophages, 250 nM T09 + 10 μM GSK2033
[5] = WT, LXRα−/− and LXRβ−/− macrophages, LPS 10 ng/ml 6 hrs, 100 nM Dex + 10 μM GSK2033, 18 hrs
[6] = T09 5 mg/kg i.p. + GSK2033 20 or 40 mg/kg i.p.

In the case of `Cc1cc(C)c(S(=O)(=O)N(Cc2ccc(-c3cccc(S(C)(=O)=O)c3)cc2)Cc2ccc(C(F)(F)F)o2)c(C)c1` [GSK2033, 2,4,6-trimethyl-N-((3′-(methylsulfonyl)-[1,1′-biphenyl]-4-yl)methyl)-N-((5-(trifluoromethyl)furan-2-yl)methyl)benzenesulfonamide], the “Dex induced GR activity” value (GR; Example 1, GAL4-GR activated with 100 nM Dex) is reported as “unaffected; also recorded: did not antagonize”, the “Dex induced GR activity” value (GR; Example 7, 100 nM Dex) is reported as “unaffected; also recorded: did not antagonize” and the “GR-mediated induction of GILZ under GSK2033 co-treatment” value (GILZ) is reported as “unaffected”. The “T09 mediated suppression of IL-6 under GSK2033 co-treatment” value (IL-6; [4]) was “antagonized”, the “Dex-mediated IL-6 repression under GSK2033 co-treatment” value (IL-6; [5]) was “unaffected” and the Pepck expression (Pepck; Example 3, LXRα−/− hepatocytes, 100 nM Dex + 10 μM GSK2033) was 3.2 fold. The Pepck expression (Pepck; Example 3, LXRβ−/− hepatocytes, 100 nM Dex + 10 μM GSK2033) was “remained unchanged”, the Pepck expression (Pepck; Example 3, WT hepatocytes, 100 nM Dex + 10 μM GSK2033) was 1.9 fold and the Pepck expression (Pepck; Example 6, LXRα−/− hepatocytes, 100 nM Dex + 10 μM GSK2033) was 0.8 fold. It also gave a Pepck expression (Pepck; Example 6, LXRα−/− hepatocytes, 10 μM Cortisol + 10 μM GSK2033) of 1.7 fold, a Pepck expression (Pepck; Example 6, LXRα−/− hepatocytes, 10 μM Prednisone + 10 μM GSK2033) of 1.24 fold and a Pepck expression (Pepck; Example 6, LXRα−/− hepatocytes, 10 μM Triamcinolone acetonide + 10 μM GSK2033) of 0.6 fold. The Pepck expression (Pepck; Example 8, LXRα−/− hepatocytes, 100 nM Dex + 10 μM LXR antagonist) was 2.7 fold, the IC50 (LXRα [1]; Example 1, T0901317 at EC80 (250 nM), 8 concentrations, read-out: IC50 against LXRα) was 0.079 µM and the IC50 (LXRα [1]; Example 7, T0901317 250 nM, 6 concentrations, read-out: IC50 to inhibit LXRα) was 0.022 µM. For the same compound, the “basal repression of LXRα” value (LXRα [1]; preliminary experiment, 3 doses) was “basal repression”, the IC50 (LXRα [2]) was 0.66 µM and the IC50 (LXRβ) was 0.292 µM. The “right-shift of LXRβ IC50, primary hepatocytes vs HEK293” value (LXRβ) was about 10 fold, the “selectivity for LXRβ vs. LXRα” value (LXRβ; in hepatocytes) was 2.5 fold and the “liver ABCG5 activation by T09” value (LXRα−/− mice; [6]) was “dose dependent inhibition; also recorded: dose dependent repression”. For the same compound, the “liver ABCG8 activation by T09” value (LXRα−/− mice; [6]) was “dose dependent inhibition; also recorded: dose dependent repression”, the toxicity (LXRα−/− mice; higher dose of GSK2033 (40 mg/kg)) was “no toxicity” and the “T09 mediated suppression of IL-1β under GSK2033 co-treatment” value (IL-1β; [4]) was “antagonized”. The “Dex-mediated IL-1β repression under GSK2033 co-treatment” value (IL-1β; [5]) was “unaffected” and the “right-shift of LXRα IC50, primary hepatocytes vs HEK293” value (LXRα [3]) was about 10 fold.
